The values below come from ChEMBL document CHEMBL5331054, “Antibacterial quaternary ammonium agents: Chemical diversity and biological mechanism” (Eur J Med Chem, 2022).

SMILES strings stand for the structures.

Assay [1] concerns Enterococcus faecalis. The assay is described as follows: Antibacterial activity against Enterococcus faecalis assessed as reduction in bacterial cell growth. Type of assay: functional.
Assay [2] deals with Stenotrophomonas maltophilia. The assay is described as follows: Antibacterial activity against Stenotrophomonas maltophilia assessed as inhibition of bacterial growth. The assay is classed as functional.
In assay [3] the test system is Staphylococcus aureus. Nature of the assay: Antimicrobial activity against Staphylococcus aureus assessed as reduction in bacterial growth. Type of assay: functional.
The test system of assay [4] is Staphylococcus aureus. Nature of the assay: Antibiofilm activity against methicillin-resistant Staphylococcus aureus SH1000 assessed as reduction in bacterial growth. Type of assay: functional.
Assay [5] concerns Staphylococcus aureus. The assay is described as follows: Antimicrobial activity against community acquired methicillin-resistant Staphylococcus aureus SH1000. Type of assay: functional.
The test system of assay [6] is Staphylococcus aureus. Nature of the assay: Antibacterial activity against Staphylococcus aureus assessed as bacterial growth inhibition incubated for 72 hrs by microdilution assay. The conditions noted are these: for MIC: Staphylococcus aureus, time 72 hrs. The assay is classed as functional, organism-based. On the technique in general: In broth dilution the organism is exposed to a series of concentrations in liquid medium.

The test system of assay [7] is Escherichia coli. Nature of the assay: Antibacterial activity against Escherichia coli assessed as bacterial growth inhibition incubated for 72 hrs by microdilution method. Type of assay: functional.
For assay [8], the system named is Pseudomonas aeruginosa. Nature of the assay: Antibacterial activity against Pseudomonas aeruginosa assessed as bacterial growth inhibition incubated for 72 hrs by microdilution method. Type of assay: functional.
Assay [9] concerns Staphylococcus aureus. The assay is described as follows: Antibacterial activity against Staphylococcus aureus assessed as bacterial growth inhibition measured after 24 hrs by micro-broth dilution method. Type of assay: functional.
The subject of assay [10] is Staphylococcus aureus. The assay is described as follows: Antibacterial activity against methicillin- resistant Staphylococcus aureus assessed as bacterial growth inhibition incubated for 24 hrs. Type of assay: functional.
Assay [11] deals with Staphylococcus aureus. The assay is described as follows: Antibacterial activity against methicillin-resistant Staphylococcus aureus assessed as bacterial growth inhibition. Type of assay: functional.
For assay [12], the system named is Escherichia coli. The assay is described as follows: Antibacterial activity against Escherichia coli ATCC 25922 assessed as reduction in bacterial growth incubated for 24 hrs by micro-dilution method. Type of assay: functional.
Assay [13] deals with Pseudomonas aeruginosa. Nature of the assay: Antibacterial activity against Pseudomonas aeruginosa assessed as inhibition of bacterial cell growth. The assay is classed as functional.
For assay [14], the system named is Escherichia coli. Nature of the assay: Antibacterial activity against Escherichia coli assessed as reduction bacterial cell growth. Type of assay: functional.
Assay [15] relates to Staphylococcus aureus. Nature of the assay: Antibacterial activity against methicillin-sensitive Staphylococcus aureus assessed as reduction microbial growth. Type of assay: functional.
Assay [16] concerns Enterococcus faecalis. The assay is described as follows: Antibacterial activity against Enterococcus faecalis assessed as bacterial growth inhibition incubated for 72 hrs by microdilution method. The assay is classed as functional.
For assay [17], the system named is Staphylococcus aureus. The assay is described as follows: Antibacterial activity against methicillin-resistant Staphylococcus aureus assessed as log reduction in bacterial load measured after 60 mins. The assay is classed as functional. As to conditions: 1 h.
The subject of assay [18] is Staphylococcus aureus. The assay is described as follows: Antibiofilm activity against methicillin-resistant Staphylococcus aureus assessed as inhibition of biofilm formation. The assay is classed as functional.
Assay [19] concerns Staphylococcus aureus. Nature of the assay: Antibacterial activity against Staphylococcus aureus CCM 451608 assessed as reduction in bacterial growth inhibition incubated for 48 hrs by microbroth dilution method. Type of assay: functional.
Assay [20] has as its system Staphylococcus aureus. Nature of the assay: Antibacterial activity against Staphylococcus aureus CCM 451608 assessed as reduction in bacterial growth inhibition incubated for 24 hrs by microbroth dilution method. Type of assay: functional.
Setting [21] is: Escherichia coli, 72 h, read-out: MIC.
Setting [22] is: Pseudomonas aeruginosa, 72 h, read-out: MIC.

As usually defined, the IC50 is the concentration at which inhibition is half-maximal.

On to `CCCCCCCC[N+](C)(C)CCOc1ccc(OCC[N+](C)(C)CCCCCCCC)cc1.[Br-].[Br-]`, for which the MIC in assay [1] is 4 µg/mL; in assay [2] it was 1 µg/mL; in assay [3], 0.5 µg/mL.

Turning to `C=CC[N+](CCC[N+](C)(C)CCCCCCCCCC)(CCC[N+](C)(C)CCCCCCCCCC)CCC[N+](C)(C)CCCCCCCCCC.[Br-].[Br-].[Br-].[Br-]`, the MBEC in [4] stood at 25 µM. The compound further registered an MIC in assay [5] of 0.25 µM.

In the case of `CCCCCCCCCCCCOC(=O)C[N+](C)(C)CCC[N+](C)(C)CC(=O)OCCCCCCCCCCCC.[Cl-].[Cl-]`, the 50% inhibitory concentration (IC50) in assay [6] amounted to 120 µM. Moreover, the results for the MIC in [7] and in [8] were 200 µM and 40 µM, respectively.

Regarding `CCCCCCCCCC[N+](C)(C)Cc1ccc(C[N+](C)(C)CCCCCCCCCC)cc1`, the MIC in assay [9] is 6.1 µM.

In the case of `CCCCCCCCCC[N+](C)(C)CCCCCCCCCC` [DIDECYLDIMETHYLAMMONIUM CHLORIDE], the MIC in assay [10] was 1 µM; in assay [11] it was 4 µM.

Turning to `CC1(C)[C@@H]2CC[C@H](CC[N+](C)(C)CC[C@H]3CC[C@@H]4C[C@H]3C4(C)C)[C@H]1C2.[I-]`, the MIC in assay [12] amounted to 5 µg/mL.

In the case of `CCCCCCCCCC[n+]1cccc(CN(Cc2ccc[n+](CCCCCCCCCC)c2)Cc2ccc[n+](CCCCCCCCCC)c2)c1`, the MIC in assay [1] is 1 µM; in assay [13], 2 µM; in [14], 1 µM; in [11] it was 0.5 µM; in [3], 0.5 µM.

`CCCCCCCCCCCC[N+](C)(C)CCC[N+](C)(C)CCC[N+](C)(C)CCCCCCCCCCCC`: in assay [15], the MIC came to 0.5 µM.

For the compound `C[N+](C)(C)CCCCC[N+](C)(C)C` [PENTAMETHONIUM BROMIDE], the MIC in [16], in assay [6], in assay [7] (setting [21]) and in assay [8] (setting [22]) was more than 500 µM throughout.

As to `CCCCCCCCCCCCCCCC[N+](C)(C)c1ccc(C(c2ccccc2)c2ccc([N+](C)(C)C)cc2)cc1.[I-].[I-]` (stereo not drawn), in [11], the MIC is less than 0.25 µg/mL.

On to `CC1(C)C(=O)N(CCC[N+](C)(C)CC[N+](C)(C)C)C(=O)N1Cl.[Cl-].[Cl-]`, for which the “log(activity)” value in assay [17] was found to be 2.36.

In the case of `CCCCCCCCCCCC[N+](C)(C)CCCN(C)C`, the MIC in assay [10] came out at 4 µM; in assay [11] it was 8 µM.

For `CCCCCCCCCCCC[N+](C)(C)CCCCCCCCCCCC`, the MIC was 1 µM in assay [16], 1 µM in assay [6], 8 µM in assay [7] (setting [21]) and 32 µM in [8] (setting [22]).

Turning to `CCCCCCCCCCC[n+]1cccc(Oc2ccc(Oc3ccc[n+](CCCCCCCCCCC)c3)cc2)c1.[Br-].[Br-]`, the MIC in [11] was less than 0.25 µg/mL.

In the case of `CCCCCCCCCCCC[N+](C)(C)CCN(C)CC[N+](C)(C)CCCCCCCCCCCC`, the MIC stood at 2 µM in assay [16]; 1 µM in assay [6]; 1 µM in assay [7] (setting [21]); 4 µM in [8] (setting [22]); 1 µM in assay [18].

Take `CCCCCCCCS(=O)(=O)Nc1ccc(-c2ccc(-c3ccccc3)cc2)cc1C(=O)C(=O)NCCC[N+](C)(C)C`: in assay [9], the MIC came to 4 µM.

With `CCCCCCCCCCCC[N+](C)(C)CCCCC[N+](C)(C)CCCCCCCCCCCC`, the MIC in [16] is 1 µM; in assay [6], 1 µM; in assay [7] (setting [21]) it was 1 µM; in [8] (setting [22]), 4 µM.

For `CCCCCCCCCCCCCCCC[n+]1ccc(C=NO)cc1`, the MIC in assay [19] and in assay [20] was 0.98 µM throughout.
